Source: patent US8258159B2, “Inhibitors of the α2β1/GPIa-IIa integrin” (The Trustees Of The University Of Pennsylvania, priority 2005, dated 2012)
pIC50: −log10 of the molar value. *1 amine or outer side, *2 acyl side, *3 side chain or, on linkers, in order; H or OH if unused. Where a SMILES comes first, the peptide text is derived from it. Side-chain parts run from the residue outwards. [ ]: non-standard residue; d: D form. The star is where a group is joined. Tos = Cc1ccc(S(=O)(=O)*)cc1; Dap = NC[C@H](N)C(=O)O; CO = O=C([*:1])[*:2]; NHBn = c1ccc(CN*)cc1

Target: T1, α2β1 integrin (Homo sapiens, UniProt P05556+P17301)
T1 construct: endogenous in cells; host or cells: gel-filtered human platelets of a single donor
T1 sequence (P17301 30-1181): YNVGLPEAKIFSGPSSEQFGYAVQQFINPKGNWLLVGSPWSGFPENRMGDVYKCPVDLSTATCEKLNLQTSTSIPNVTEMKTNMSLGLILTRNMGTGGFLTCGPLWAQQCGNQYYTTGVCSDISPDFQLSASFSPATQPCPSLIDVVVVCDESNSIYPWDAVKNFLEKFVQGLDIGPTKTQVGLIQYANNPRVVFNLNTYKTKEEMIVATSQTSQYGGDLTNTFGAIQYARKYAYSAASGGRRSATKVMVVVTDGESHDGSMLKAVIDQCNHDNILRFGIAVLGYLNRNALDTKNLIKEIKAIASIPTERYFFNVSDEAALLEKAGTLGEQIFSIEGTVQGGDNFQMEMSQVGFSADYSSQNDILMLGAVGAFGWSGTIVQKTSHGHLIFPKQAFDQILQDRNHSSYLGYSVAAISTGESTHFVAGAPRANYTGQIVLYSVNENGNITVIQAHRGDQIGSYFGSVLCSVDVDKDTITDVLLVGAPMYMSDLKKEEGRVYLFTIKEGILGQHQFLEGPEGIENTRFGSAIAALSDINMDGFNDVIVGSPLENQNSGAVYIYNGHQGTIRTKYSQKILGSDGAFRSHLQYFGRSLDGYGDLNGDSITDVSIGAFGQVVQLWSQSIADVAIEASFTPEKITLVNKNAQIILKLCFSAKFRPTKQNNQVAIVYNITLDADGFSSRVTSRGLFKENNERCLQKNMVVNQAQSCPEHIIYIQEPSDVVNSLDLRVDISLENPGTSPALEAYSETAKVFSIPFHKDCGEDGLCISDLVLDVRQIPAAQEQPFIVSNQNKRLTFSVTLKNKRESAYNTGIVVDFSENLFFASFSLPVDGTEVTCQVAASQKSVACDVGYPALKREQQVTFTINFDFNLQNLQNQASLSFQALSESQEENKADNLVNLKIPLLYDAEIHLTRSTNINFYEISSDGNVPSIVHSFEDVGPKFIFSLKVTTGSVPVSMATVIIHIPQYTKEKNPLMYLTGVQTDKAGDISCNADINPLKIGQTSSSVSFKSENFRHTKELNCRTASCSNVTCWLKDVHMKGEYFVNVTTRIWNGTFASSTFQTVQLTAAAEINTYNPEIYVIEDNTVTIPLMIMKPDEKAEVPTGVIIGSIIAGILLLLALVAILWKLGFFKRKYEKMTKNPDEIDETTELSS
T1 sequence (P05556 21-798): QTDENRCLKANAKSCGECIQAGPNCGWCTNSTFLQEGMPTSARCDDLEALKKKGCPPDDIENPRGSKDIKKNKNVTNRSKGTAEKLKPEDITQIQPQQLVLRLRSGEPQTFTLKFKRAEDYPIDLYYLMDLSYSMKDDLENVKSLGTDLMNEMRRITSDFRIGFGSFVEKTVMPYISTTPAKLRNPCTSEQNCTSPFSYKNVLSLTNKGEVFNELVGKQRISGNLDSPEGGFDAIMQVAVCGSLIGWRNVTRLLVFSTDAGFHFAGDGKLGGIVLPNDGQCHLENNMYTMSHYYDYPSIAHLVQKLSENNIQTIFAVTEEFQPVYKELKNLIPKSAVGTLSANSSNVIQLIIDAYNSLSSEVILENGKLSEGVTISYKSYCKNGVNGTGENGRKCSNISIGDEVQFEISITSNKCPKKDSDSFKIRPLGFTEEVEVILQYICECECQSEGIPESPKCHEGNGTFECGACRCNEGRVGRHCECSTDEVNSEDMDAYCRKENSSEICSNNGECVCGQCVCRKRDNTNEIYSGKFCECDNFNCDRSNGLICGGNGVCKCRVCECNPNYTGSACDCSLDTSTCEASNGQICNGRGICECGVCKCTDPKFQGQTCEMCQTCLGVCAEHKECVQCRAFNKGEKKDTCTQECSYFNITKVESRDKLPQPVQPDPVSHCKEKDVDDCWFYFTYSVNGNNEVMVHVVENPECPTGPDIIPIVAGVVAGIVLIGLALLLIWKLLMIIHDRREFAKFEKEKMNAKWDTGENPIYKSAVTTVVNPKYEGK
Experiment: Platelet adhesion assay (human platelet adhesion to type I collagen)
Format: cell-based
Details: human platelet adhesion to type I (soluble, monomeric) collagen, static conditions; single donor; read-out: IC50
Description: The inhibitory strength of the compounds of the present disclosure was analyzed as against platelet adhesion to type I collagen. Ninety-six well flat bottom microtiter plates (Immulon 2, Dynatech Laboratories, Chantilly, Va.) were coated with collagen, purified human fibrinogen, or bovine serum albumin, each dissolved in 50 mM NaHCO3 buffer, pH 8.0, containing 150 mM NaCl as previously described. See Bennett J S, Chan C, Vilaire G, Mousa S A, DeGrado W F. Agonist-Activated αvβ3 on Platelets and Lymphocytes Binds to the Matrix Protein Osteopontin. J Biol Chem. 272, 8137-814) (1997). Unoccupied protein binding sites on the wells were blocked with 5 mg/ml bovine serum albumin dissolved in the same buffer. Human platelets were isolated from blood anticoagulated with 0.1 volume 3.8% sodium citrate by gel-filtration using a 4 mM HEPES buffer, pH 7.4, containing 135 mM NaCl, 2.7 mM KCl, 5.6 mM glucose, 3.3 mM NaH2PO4, 0.35 mg/ml bovine serum albumin and various concentrations of CaCl2 or MgCl2 according to the experiment. One hundred μl aliquots of the gel-filtered platelet suspension containing 1-2×10^8 platelets were added to the protein-coated wells in the absence or presence of a platelet agonist. Following an incubation for 30 min at 37° C. without agitation, the plates were washed 4 times with the Tris-buffered NaCl, containing 2 mM MgCl2, pH 7.4, and the number of adherent platelets measured using the colorimetric assay reported by Bellavite P, Andrioli G, Guzzo P, et al. A colorimetric method for the measurement of platelet adhesion in microtiter plates. Anal Biochem. 216, 444-450 (1994). Briefly, 150 μl of a 0.1 M citrate buffer, pH 5.4, containing 5 mM p-nitrophenyl phosphate and 0.1% Triton X-100 was added to the wells after washing. After an incubation for 60 min at room temperature in the absence of ambient light, color was developed by the addition of 100 μl of 2N NaOH and, using EL800 Universal Microplate Reader (Bio-Tek Instruments, Inc., Winooski, Vt.), read in microtiter plate reader at 405 nm.
The potencies of the compounds of the present disclosure were determined by testing the ability of a range of concentrations of each compound to inhibit human platelet adhesion to soluble collagen under static conditions. Owing to the fact that soluble collagen is a specific ligand for α2β1 integrin, this is an accepted method of assessing α2β1 inhibition on platelets.
IC50 values were determined by using the platelets of a single donor. In cases where multiple assays were performed, the reported results reflect the average IC50 value derived from the separate assays.

pIC50	Compound
7.44	Cc1ccc(S(=O)(=O)N2CCC[C@H]2C(=O)N[C@@H](CNC(=O)NCc2ccccc2)C(=O)O)cc1 [Compound 27, 3-(3-Benzyl-ureido)-2-{[1-(toluene-4-sulfonyl)-pyrrolidine-2-carbonyl]-amino}-propionic acid] (Tos-Pro-[Dap]([CO-NHBn])-OH)
5.71	O=C(NCc1ccccc1)NC[C@H](NC(=O)[C@@H]1CCCN1S(=O)(=O)c1cccc2ccccc12)C(=O)O [Compound 28]
6.63	O=C(Cc1ccccc1)Nc1ccc(S(=O)(=O)N2CCC[C@H]2C(=O)N[C@@H](CNC(=O)NCc2ccccc2)C(=O)O)cc1 [Compound 32, 3-(3-Benzyl-ureido)-2-{[1-(4-phenylacetylamino-benzenesulfonyl)-pyrrolidine-2-carbonyl]-amino}-propionic acid]
6.82	O=C(NCc1ccccc1)NC[C@H](NC(=O)[C@@H]1CCCN1S(=O)(=O)c1ccc(NC(=O)Nc2ccccc2)cc1)C(=O)O [Compound 33, 3-(3-Benzyl-ureido)-2-({1-[4-(3-phenyl-ureido)-benzenesulfonyl]-pyrrolidine-2-carbonyl}-amino)-propionic acid]
7.30	O=C(NCc1ccccc1)NC[C@H](NC(=O)[C@@H]1CCCN1S(=O)(=O)c1ccc2ccccc2c1)C(=O)O [Compound 34, 3-(3-Benzyl-ureido)-2-{[1-(naphthalene-2-sulfonyl)-pyrrolidine-2-carbonyl]-amino}-propionic acid]
6.97	O=C(NCc1ccccc1Cl)NC[C@H](NC(=O)[C@@H]1CCCN1S(=O)(=O)c1ccccc1)C(=O)O [Compound 35, 2-[(1-Benzenesulfonyl-pyrrolidine-2-carbonyl)-amino]-3-[3-(2-chloro-benzyl)-ureido]-propionic acid]
6.53	O=C(NC[C@H](NC(=O)[C@@H]1CCCN1S(=O)(=O)c1ccccc1)C(=O)O)Nc1ccccc1 [Compound 36, 2-[(1-Benzenesulfonyl-pyrrolidine-2-carbonyl)-amino]-3-(3-phenyl-ureido)-propionic acid]
6.44	O=C(CCc1ccccc1)NC[C@H](NC(=O)[C@@H]1CCCN1S(=O)(=O)c1ccccc1)C(=O)O [Compound 37, 2-[(1-Benzenesulfonyl-pyrrolidine-2-carbonyl)-amino]-3-(3-phenyl-propionylamino)-propionic acid]
6.18	O=C(NC[C@H](NC(=O)[C@@H]1CCCN1S(=O)(=O)c1ccccc1)C(=O)O)c1ccccc1 [Compound 38, 2-[(1-Benzenesulfonyl-pyrrolidine-2-carbonyl)-amino]-3-benzoylamino-propionic acid]
6.73	O=C(NC[C@H](NC(=O)[C@@H]1CCCN1S(=O)(=O)c1ccccc1)C(=O)O)OCc1ccccc1 [Compound 39, 2-[(1-Benzenesulfonyl-pyrrolidine-2-carbonyl)-amino]-3-benzyloxycarbonylamino-propionic acid]
6.33	COc1ccccc1CNC(=O)NC[C@H](NC(=O)[C@@H]1CCCN1S(=O)(=O)c1ccccc1)C(=O)O [Compound 40, 2-[(1-Benzenesulfonyl-pyrrolidine-2-carbonyl)-amino]-3-[3-(2-methoxy-benzyl)-ureido]-propionic acid]
6.80	COc1cccc(CNC(=O)NC[C@H](NC(=O)[C@@H]2CCCN2S(=O)(=O)c2ccccc2)C(=O)O)c1 [Compound 41, 2-[(1-Benzenesulfonyl-pyrrolidine-2-carbonyl)-amino]-3-[3-(3-methoxy-benzyl)-ureido]-propionic acid]
6.44	CCCNC(=O)NC[C@H](NC(=O)[C@@H]1CCCN1S(=O)(=O)c1ccccc1)C(=O)O [Compound 42, 2-[(1-Benzenesulfonyl-pyrrolidine-2-carbonyl)-amino]-3-{3-propyl-ureido)-propionic acid]
7.46	O=C(NCc1ccccc1)NC[C@H](NC(=O)[C@@H]1CCCN1S(=O)(=O)c1cc(F)cc(F)c1)C(=O)O [Compound 43, 3-(3-Benzyl-ureido)-2-{[1-(3,5-difluoro-benzenesulfonyl)-pyrrolidine-2-carbonyl]-amino}-propionic acid]
7.15	CS(=O)(=O)c1ccc(S(=O)(=O)N2CCC[C@H]2C(=O)N[C@@H](CNC(=O)NCc2ccccc2)C(=O)O)cc1 [Compound 44, 3-(3-Benzyl-ureido)-2-{[1-(4-methanesulfonyl-benzenesulfonyl)-pyrrolidine-2-carbonyl]-amino}-propionic acid]
6.73	CC(C)(C)NC(=O)NC[C@H](NC(=O)[C@@H]1CCCN1S(=O)(=O)c1ccccc1)C(=O)O [Compound 45, 2-[(1-Benzenesulfonyl-pyrrolidine-2-carbonyl)-amino]-3-(3-tert-butyl-ureido)-propionic acid]
6.62	O=C(NCc1ccccc1)NC[C@H](NC(=O)[C@@H]1C[C@@H](OCc2ccccc2)CN1S(=O)(=O)c1ccccc1)C(=O)O [Compound 46, 2-[(1-Benzenesulfonyl-4-benzyloxy-pyrrolidine-2-carbonyl)-amino]-3-(3-benzyl-ureido)-propionic acid]
7.47	O=C(NCc1ccccc1)NC[C@H](NC(=O)[C@@H]1C[C@@H](O)CN1S(=O)(=O)c1ccccc1)C(=O)O [Compound 47, 2-[(1-Benzenesulfonyl-4-hydroxy-pyrrolidine-2-carbonyl)-amino]-3-(3-benzyl-ureido)-propionic acid]
7.41	O=C(NCc1ccccc1)NC[C@H](NC(=O)[C@@H]1CCCN1S(=O)(=O)c1cc(C(F)(F)F)cc(C(F)(F)F)c1)C(=O)O [Compound 49, 3-(3-Benzyl-ureido)-2-{[1-(3,5-bis-trifluoromethyl-benzenesulfonyl)-pyrrolidine-2-carbonyl]-amino}-propionic acid]
7.25	O=C(NCc1ccccc1)NC[C@H](NC(=O)C1CCCCN1S(=O)(=O)c1ccccc1)C(=O)O (some centres unmarked) [Compound 51, 2-[(1-Benzenesulfonyl-piperidine-2-carbonyl)-amino]-3-(3-benzyl-ureido)-propionic acid]
